Laboratory results published in patent EP0992240A1, “THERAPEUTIC AGENT FOR ERECTION FAILURE” (MOCHIDA PHARMACEUTICAL CO., LTD., priority 1997, dated 1998).

What was measured:
[1] = target: T1, PDE type V (Canis lupus familiaris, UniProt O77746); experiment: PDE inhibiting activity, type V; type: biochemical, dog; conditions: PDE purified from canine aorta; 1 µM substrate cGMP or cAMP; read-out: Inhibition Activity IC50 (µM) Type V
T1 construct: By elution with a sodium chloride gradient (0 - 0.4 M), PDE types V and III were separated from the other isozymes; from tissue; host or cells: canine aorta

[2] = system: PDE type I; experiment: PDE inhibiting activity, type I; type: biochemical, dog; conditions: PDE purified from canine aorta; 1 µM substrate cGMP or cAMP; read-out: Inhibition Activity IC50 (µM) Type I
Description: On the basis of the method of Lugnier et al. (Biochem. Pharmacol., 35, 1743-1751, 1986), PDE was purified from the aorta in a dog. The canine aorta was minced and homogenized with a Waring Blender and a glass homogenizer in six volumes of a Tris-HCl buffer solution (pH 7.5, 20 mM) containing 2 mM magnesium acetate, 5 mM ethylenediaminetetraacetic acid (EDTA), 100 µg/mL of phenylmethylsulforyl fluoride and 15 mM 2-mercaptoethanol (2-ME), and centrifuged at 1200 x g for 30 min. The supernatant was separated and salted out with ammonium sulfate which was added to 45% saturation. The resulting precipitated fraction was resuspended in a Tris-HCl buffer solution (pH 7.5, 20 mM) containing 2 mM magnesium acetate and 1 mM 2-ME, dialyzed overnight and applied to a DEAE-trisacryl column (DEAE […] M:IBF). By elution with a sodium chloride gradient (0 - 0.4 M), PDE types V and III were separated from the other isozymes. The supernatant fraction of 45% saturated ammonium sulfate was further mixed with ammonium sulfate to 65% saturation and salted out. The resulting precipitated fraction was similarly applied to the DEAE-trisacryl column and eluted by a sodium chloride gradient (0 - 0.4 M) so as to separate PDE type I.
The thus obtained PDE types V, III and I were measured for their activity in accordance with the method of Thompson et al. (Adv. Cyclic Nucleotide Res., 10, 69-72, 1979) and the method of Wells et al. (Biochim. Biophys. Acta, 384, 430-443, 1975). Specifically, a purified PDE sample was added to 50 mM Tris-HCl buffer solution (pH 7.5) containing 1 µM of substrate cGMP or cAMP (containing tritium-labelled cGMP or cAMP), 1 mM EGTA and 2 mM magnesium acetate. For PDE activity measurement, enzymatically produced 5' GMP or 5' AMP was further hydrolyzed into guanosine or adenosine with snake venom and separated from the substrate by means of an ion-exchange resin (Dowex 1-X2), followed by measuring with a scintillation counter. The activity of each test compound was determined as a percentage of the PDE activity measured when it was added as a dimethyl sulfoxide solution (DMSO) and its IC50 (50% inhibition concentration) was calculated by the probit method. The final concentration of DMSO was adjusted to be no more than 2% in consideration of the effect on PDE activity.

SMILES | IC50 [1] [µM] | IC50 [2] [µM]
Cc1cn2c3ccc(Br)cc3c3cc(OCC(=O)OC(C)C)cc(c1=O)c32 [Example 16] | 0.0017 | > 30
CCOC(=O)COc1cc2c(=O)c(C)cn3c4ccc(Br)cc4c(c1)c23 [Example 17, 10-bromo-2-ethoxycarbonylmethyloxy-5-methyl-4H-pyrido[3,2,1-jk]carbazol-4-one] | 0.0035 | > 30
CCCC(=O)COc1cc2c(=O)c(C)cn3c4ccc(Br)cc4c(c1)c23 [Example 18, 10-bromo-2-(2-oxopentyloxy)-5-methyl-4H-pyrido[3,2,1-jk]carbazol-4-one] | 0.015 | > 30
COc1cc2c(=O)ccn3c4ccc(Br)cc4c(c1)c23 [Example 19, 10-bromo-2-methoxy-4H-pyrido[3,2,1-jk]carbazol-4-one] | 0.05 | > 10
CC(C)(C)OC(=O)COc1cc2c(=O)ccn3c4ccc(Br)cc4c(c1)c23 [Example 21, 10-bromo-2-t-butoxycarbonylmethyloxy-4H-pyrido[3,2,1-jk]carbazol-4-one] | 0.0009 | > 30
CC(C)OC(=O)COc1cc2c(=O)ccn3c4ccc(Br)cc4c(c1)c23 [Example 22, 10-bromo-2-i-propoxycarbonylmethyloxy-4H-pyrido[3,2,1-jk]carbazol-4-one] | 0.0008 | > 30
CCOC(=O)COc1cc2c(=O)ccn3c4ccc(Br)cc4c(c1)c23 [Example 23, 10-bromo-2-ethoxycarbonylmethyloxy-4H-pyrido[3,2,1-jk]carbazol-4-one] | 0.002 | > 30
O=C(O)COc1cc2c(=O)ccn3c4ccc(Br)cc4c(c1)c23 [Example 24, 10-bromo-2-carboxymethyloxy-4H-pyrido[3,2,1-jk]carbazol-4-one] | 0.19 | > 30
O=c1ccn2c3ccc(Br)cc3c3cc(OCc4ccccc4)cc1c32 [Example 26, 2-benzyloxy-10-bromo-4H-pyrido[3,2,1-jk]carbazol-4-one] | 0.01 | > 30
O=c1ccn2c3ccc(Br)cc3c3cc(OCc4ncon4)cc1c32 [Example 27, 10-bromo-2-(1,2,4-oxadiazol-3-yl)methyloxy-4H-pyrido[3,2,1-jk]carbazol-4-one] | 0.021 | > 30
CC(=O)Oc1cc2c(=O)ccn3c4ccc(Br)cc4c(c1)c23 [Example 28, 2-acetoxy-10-bromo-4H-pyrido[3,2,1-jk]carbazol-4-one] | 0.1 | > 100
CCCC(=O)COc1cc2c(=O)ccn3c4ccc(Br)cc4c(c1)c23 [Example 29, 10-bromo-2-(2-oxopentyloxy)-4H-pyrido[3,2,1-jk]carbazol-4-one] | 0.0047 | > 30
CC(C)(C)OC(=O)COc1cc2c(=O)c(Cc3cccnc3)cn3c4cc(Br)ccc4c(c1)c23 [Example 32, 9-bromo-2-t-butoxycarbonylmethyloxy-5-(3-pyridylmethyl)-4H-pyrido[3,2,1-jk]carbazol-4-one] | 0.091 | > 30
CC(=O)OCc1cncc(COc2cc3c(=O)c(Cc4cccnc4)cn4c5cc(Br)ccc5c(c2)c34)c1 [Example 35, 2-(5-acetoxymethyl-3-pyridylmethyloxy)-9-bromo-5-(3-pyridylmethyl)-4H-pyrido[3,2,1-jk]carbazol-4-one] | 0.088 | > 30
CC(=O)Oc1cc2c(=O)c(Cc3cccnc3)cn3c4ccccc4c(c1)c23 [Example 42, 2-acetoxy-5-(3-pyridylmethyl)-4H-pyrido[3,2,1-jk]carbazol-4-one] | 0.2 | > 30
CC(=O)Oc1ccc2c3cccc4c(=O)c(Cc5cccnc5)cn(c2c1)c43 [Example 45, 9-acetoxy-5-(3-pyridylmethyl)-4H-pyrido[3,2,1-jk]carbazol-4-one] | 0.06 | > 30
O=c1ccn2c3ccc(Cl)cc3c3cc(Cl)cc1c32 [Example 48, 2,10-dichlor-4H-pyrido[3,2,1-jk]carbazol-4-one] | – | > 30

The remaining lines, values ahead:

IC50 [1] [µM] | IC50 [2] [µM] | SMILES
0.1 | > 30 | O=c1c(Cc2cccnc2)cn2c3ccc(Br)cc3c3cc(O)cc1c32 [Example 2, 10-bromo-2-hydroxy-5-(3-pyridylmethyl)-4H-pyrido[3,2,1-jk]carbazol-4-one]
0.0038 | > 30 | CC(C)OC(=O)COc1cc2c(=O)c(Cc3cccnc3)cn3c4ccc(Br)cc4c(c1)c23 [Example 4, 10-bromo-2-i-propoxycarbonylmethyloxy-5-(3-pyridylmethyl)-4H-pyrido[3,2,1-jk]carbazol-4-one]
0.0055 | > 30 | CCOC(=O)COc1cc2c(=O)c(Cc3cccnc3)cn3c4ccc(Br)cc4c(c1)c23 [Example 5, 10-bromo-2-ethoxycarbonylmethyloxy-5-(3-pyridylmethyl)-4H-pyrido[3,2,1-jk]carbazol-4-one]
0.059 | > 30 | O=c1c(Cc2cccnc2)cn2c3ccc(Br)cc3c3cc(OCc4cccnc4)cc1c32 [Example 10, 10-bromo-5-(3-pyridylmethyl)-2-(3-pyridylmethyloxy)-4H-pyrido[3,2,1-jk]carbazol-4-one]
0.11 | > 30 | O=c1c(Cc2cccnc2)cn2c3ccc(Br)cc3c3cc(OCc4ccccc4)cc1c32 [Example 11, 2-benzyloxy-10-bromo-5-(3-pyridylmethyl)-4H-pyrido[3,2,1-jk]carbazol-4-one]
0.1 | > 100 | COc1cc2c(=O)c(C)cn3c4ccc(Br)cc4c(c1)c23 [Example 13, 10-bromo-2-methoxy-5-methyl-4H-pyrido[3,2,1-jk]carbazol-4-one]
0.1 | > 300 | Cc1cn2c3ccc(Br)cc3c3cc(O)cc(c1=O)c32 [Example 14, 10-bromo-2-hydroxy-5-methyl-4H-pyrido[3,2,1-jk]carbazol-4-one]
0.03 | > 100 | O=c1ccn2c3ccc(Br)cc3c3cc(O)cc1c32 [Example 20, 10-bromo-2-hydroxy-4H-pyrido[3,2,1-jk]carbazol-4-one]
0.011 | > 100 | O=c1ccn2c3ccc(Br)cc3c3cc(OCc4cccnc4)cc1c32 [Example 25, 10-bromo-2-(3-pyridylmethyloxy)-4H-pyrido[3,2,1-jk]carbazol-4-one]
0.0047 | > 30 | COc1cc2c(=O)c(Cc3cccnc3)cn3c4cc(Br)ccc4c(c1)c23 [Example 30, 9-bromo-2-methoxy-5-(3-pyridylmethyl)-4H-pyrido[3,2,1-jk]carbazol-4-one]
0.0032 | > 30 | O=C(O)COc1cc2c(=O)c(Cc3cccnc3)cn3c4cc(Br)ccc4c(c1)c23 [Example 33, 9-bromo-2-carboxymethyloxy-5-(3-pyridylmethyl)-4H-pyrido[3,2,1-jk]carbazol-4-one]
0.021 | > 30 | O=c1c(Cc2cccnc2)cn2c3cc(Br)ccc3c3cc(OCc4cncc(CO)c4)cc1c32 [Example 36, 9-bromo-2-(5-hydroxymethyl-3-pyridylmethyloxy)-5-(3-pyridylmethyl)-4H-pyrido[3,2,1-jk]carbazol-4-one]
0.026 | > 30 | COc1cc2c(=O)c(Cc3ccccc3)cn3c4cc(Br)ccc4c(c1)c23 [Example 39, 5-benzyl-9-bromo-2-methoxy-4H-pyrido[3,2,1-jk]carbazol-4-one]
0.009 | > 30 | O=c1c(Cc2ccccc2)cn2c3cc(Br)ccc3c3cc(O)cc1c32 [Example 40, 5-benzyl-9-bromo-2-hydroxy-4H-pyrido[3,2,1-jk]carbazol-4-one]
0.36 | 48 | O=c1c(Cc2cccnc2)cn2c3ccccc3c3cc(O)cc1c32 [Example 41, 2-hydroxy-5-(3-pyridylmethyl)-4H-pyrido[3,2,1-jk]carbazol-4-one]
